In ChEMBL document CHEMBL5385844, “Discovery of novel imidazole chemotypes as isoform-selective JNK3 inhibitors for the treatment of Alzheimer's disease” (Eur J Med Chem, 2023) one finds IC50 data, which are given here for 20 molecules.

Some results are limits rather than exact numbers.

Assay [1] has as its target Mitogen-activated protein kinase 10 (Homo sapiens, UniProt P53779). Description: Inhibition of human JNK3 incubated for 40 mins in presence of ATP and [gamma33P-ATP] by scintillation counting method.
Assay [2] concerns the target Mitogen-activated protein kinase 9 (Homo sapiens, UniProt P45984). Description: Inhibition of human JNK2 incubated for 40 mins in presence of ATP and [gamma33P-ATP] by scintillation counting method.
For assay [3], the target named is Mitogen-activated protein kinase 8 (Homo sapiens, UniProt P45983). Briefly: Inhibition of human JNK1 incubated for 40 mins in presence of ATP and [gamma33P-ATP] by scintillation counting method.

What is called IC50 is the concentration at which inhibition is half-maximal.

Sequence of Mitogen-activated protein kinase 9 (P45984 whole entry): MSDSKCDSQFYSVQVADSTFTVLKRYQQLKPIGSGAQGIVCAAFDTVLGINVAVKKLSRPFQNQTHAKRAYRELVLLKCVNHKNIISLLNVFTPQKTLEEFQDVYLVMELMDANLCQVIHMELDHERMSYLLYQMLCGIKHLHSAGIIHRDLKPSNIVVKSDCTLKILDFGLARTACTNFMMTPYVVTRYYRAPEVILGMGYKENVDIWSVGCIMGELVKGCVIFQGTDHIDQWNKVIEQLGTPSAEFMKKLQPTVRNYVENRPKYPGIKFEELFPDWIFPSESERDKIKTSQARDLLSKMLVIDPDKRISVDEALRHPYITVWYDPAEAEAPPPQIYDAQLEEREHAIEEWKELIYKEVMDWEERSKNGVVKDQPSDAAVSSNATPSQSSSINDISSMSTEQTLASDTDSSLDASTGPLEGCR
Sequence of Mitogen-activated protein kinase 10 (P53779 whole entry): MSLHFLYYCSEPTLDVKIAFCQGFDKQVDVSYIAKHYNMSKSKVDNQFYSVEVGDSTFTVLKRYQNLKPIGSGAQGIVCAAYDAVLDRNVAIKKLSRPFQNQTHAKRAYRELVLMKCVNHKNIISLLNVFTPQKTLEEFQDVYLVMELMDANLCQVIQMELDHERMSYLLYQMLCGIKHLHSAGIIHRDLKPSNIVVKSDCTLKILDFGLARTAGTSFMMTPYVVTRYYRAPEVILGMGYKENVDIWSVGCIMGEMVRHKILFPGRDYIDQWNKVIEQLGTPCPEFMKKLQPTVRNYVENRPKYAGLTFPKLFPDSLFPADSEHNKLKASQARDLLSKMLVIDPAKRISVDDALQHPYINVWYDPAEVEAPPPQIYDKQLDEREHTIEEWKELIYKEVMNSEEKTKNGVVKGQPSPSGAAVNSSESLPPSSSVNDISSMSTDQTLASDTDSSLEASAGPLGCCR
Sequence of Mitogen-activated protein kinase 8 (P45983 whole entry): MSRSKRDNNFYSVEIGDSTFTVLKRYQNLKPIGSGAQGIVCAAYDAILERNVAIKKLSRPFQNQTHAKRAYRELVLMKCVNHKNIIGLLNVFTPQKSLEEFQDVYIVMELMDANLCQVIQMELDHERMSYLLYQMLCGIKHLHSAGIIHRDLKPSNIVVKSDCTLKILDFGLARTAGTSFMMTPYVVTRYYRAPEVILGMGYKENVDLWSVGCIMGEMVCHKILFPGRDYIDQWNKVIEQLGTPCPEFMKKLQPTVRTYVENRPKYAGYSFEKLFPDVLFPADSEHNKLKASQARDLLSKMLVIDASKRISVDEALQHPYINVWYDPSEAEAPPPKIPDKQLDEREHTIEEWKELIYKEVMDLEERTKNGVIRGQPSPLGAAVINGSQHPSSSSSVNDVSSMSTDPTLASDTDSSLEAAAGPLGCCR

For `C[C@@H](O)CNc1nccc(-n2c(CC#N)cnc2-c2ccc3ccccc3n2)n1`, in assay [1] (read-out: IC50), the IC50 was above 10000 nM.
On the same count and under the same terms, to `C[C@@H](O)CNc1nccc(-n2c(CC#N)cnc2-c2ccc3c(c2)OCO3)n1` belongs above 10000 nM; to `N#CCc1cnc(-c2ccc3ccccc3n2)n1-c1ccnc(N[C@H]2CCCNC2)n1`, above 10000 nM.
The same measure, in the same setting: to `N#CCc1cnc(-c2ccc3ccccc3c2)n1-c1ccnc(N[C@H]2CCCNC2)n1` belongs above 10000 nM; to `N#CCc1cnc(C2=CC3OCCOC3C=C2)n1-c1ccnc(N[C@H]2CCCNC2)n1` (stereo partly specified), above 10000 nM.
`N#CCc1cnc(-c2ccc3ccccc3c2)n1-c1ccnc(N[C@@H]2CCCN(C(=O)C3CC3)C2)n1`: the IC50 in assay [1] (read-out: IC50) came out at 5 nM; in assay [2] it was 66.1 nM; in assay [3], 211 nM.
`N#CCc1cnc(-c2ccc(F)c(C(F)(F)F)c2)n1-c1ccnc(NC2CCOCC2)n1`: the IC50 in assay [1] (read-out: IC50) amounted to 421 nM.
Consider `N#CCc1cnc(-c2ccc(Cl)c(Cl)c2)n1-c1ccnc(NC2CCOCC2)n1`, for which the IC50 in assay [1] (read-out: IC50) was found to be 290 nM.
As for `N#CCc1cnc(-c2ccc3c(c2)OCO3)n1-c1ccnc(NC2CCCCC2)n1`, in assay [1] (read-out: IC50), the IC50 stood at 814 nM.
For `N#CCc1cnc(C2=CC3OCCOC3C=C2)n1-c1ccnc(N[C@H]2CCCN(C(=O)C3CC3)C2)n1` (stereo partly specified), the IC50 in assay [1] (read-out: IC50) is 1520 nM.
Take `N#CCc1cnc(-c2ccc(F)c(C(F)(F)F)c2)n1-c1ccnc(NC2CCCCC2)n1`: the IC50 in assay [1] (read-out: IC50) is 10000 nM.
As for `N#CCc1cnc(-c2ccc3c(c2)OCCO3)n1-c1ccnc(NC2CCCCC2)n1`, the IC50 in assay [1] (read-out: IC50) was 6270 nM.
With `N#CCc1cnc(-c2ccc(F)c(C(F)(F)F)c2)n1-c1ccnc(N[C@H]2CCCNC2)n1`, the IC50 result in assay [1] was “Not Active”.
On to `N#CCc1cnc(-c2ccc3ccccc3c2)n1-c1ccnc(NC2CCOCC2)n1`, for which the IC50 in assay [1] (read-out: IC50) is 321 nM.
Same read-out and setting: with `C[C@@H](O)CNc1nccc(-n2c(CC#N)cnc2-c2ccc3c(c2)OCCO3)n1` the figure was 9840 nM; with `N#CCc1cnc(-c2ccc3c(c2)OCCO3)n1-c1ccnc(NC2CCOCC2)n1`, above 10000 nM; with `N#CCc1cnc(-c2ccc3c(c2)OCO3)n1-c1ccnc(NC2CCOCC2)n1`, 8560 nM.
On to `N#CCc1cnc(-c2ccc3ccccc3c2)n1-c1ccnc(Nc2cccc(C(=O)C3CC3)c2)n1`, for which the values for the IC50 in assay [1] (read-out: IC50), in assay [2] and in assay [3] were 7 nM, 287 nM and 1730 nM, respectively.
With `N#CCc1cnc(-c2ccc(Cl)c(Cl)c2)n1-c1ccnc(NC(=O)NC2CCCN(C(=O)C3CC3)C2)n1` (stereo unspecified), the IC50 in assay [1] (read-out: IC50), in assay [2] and in assay [3] was above 10000 nM throughout.
Regarding `N#CCc1cnc(-c2ccc(Cl)c(Cl)c2)n1-c1ccnc(NC2CCCCC2)n1`, in assay [1] (read-out: IC50), the IC50 was 611 nM.
